Results published in patent US20250027956A1, “Improved Gamma-Secretase Inhibitor Screening Assays” (VIB VZW, priority 2021, published 2025).

Experiments:
[1] = test system: LE/Ly cholesterol; details: cited from earlier work
[2] = test system: NPC disease models; details: cited from earlier work
[3] = test system: WT MEFs; assay: Lysosomal Ca2+ content, Fura-2AM loaded cells challenged with GPN, WT cells; format: cell-based, mouse
Method: Cells were treated with the following drugs, usually for 4 days, unless otherwise stated: DAPT (2634/10, Tocris) 1 μM final; Inhibitor X (565771-250 μg, Calbiochem/Merck) 1 μM final; β-Secretase Inhibitor IV (565788, Calbiochem/Merck) 2 μM final, (2-Hydroxypropyl)-γ-cyclodextrin (H125-5G-I, Sigma Aldrich) 1 mM final; Adam 10 inhibitor G1254023X (SML0789, Sigma Aldrich) 3 μM final. For OSW-1 (30310-1, Sanbio/Cayman Chemical), cells were treated overnight with 10 nM. Diluent treatment alone (in most cases DMSO, water for the cyclodextrin) was used as vehicle control.
Cytosolic response: Ca2+ responses were measured as previously described in Coen et al 2012. Briefly, cells (0.005 to 0.01×106) were seeded two to three days prior to the experiment on glass coverslips (631-0153, VWR). On the day of recording, cells were rinsed three times in Ringer solution (155 mM NaCl, 5 mM KCl, 2 mM MgCl2, 2 mM CaCl2, 10 mM Glucose, 10 mM HEPES, 2 mM NaH2PO4·2H20; pH 7.3), and loaded 1 μM Fura2-AM (F1221, ThermoFisher Scientific) for 30 min (RT). Cells were rinsed three times and left to equilibrate for at least 15-20 min (RT). All acquisitions were carried out in Ringer Ca2+ free solution (same as above, albeit the 2 mM CaCl2 were replaced by 2 mM EGTA). During experiments, cells were challenged with different drugs, such as Thapsigargin (T7459, ThermoFisher Scientific, 1 μM final), GPN (ab145914, abcam, 100 μM final for MEFs, 500 μM for neurons), MLSA1 (Cat. No. 4746, Tocris, 20 μM final) or lonomycin (10634, Sigma Aldrich, 1 μM final). Images were acquired every 5 sec for 8-10 min, using an Olympus IX81 using an UAPO/340 40× oil objective (1.35 NA), operated by CellR Software (Olympus). Recordings were done using 340 and 380 nm excitation, and 530 nm emission filters. Image processing was performed using Image J Software (Schindelin et al 2012; Schneider et al 2012). Briefly, cells were segmented manually and fluorescence intensities were measured over time. Fura-2 signals were corrected to obtain ΔF/F0 (F0 being the initial signal recorded). For each cell, the area under the curve, corresponding to the aforementioned stimulation, was measured using GraphPad Prism.

[4] = test system: PSENdKO cells; assay: Confocal immunofluorescence (compartment size, Mander's colocalization, filipin) in PSENdKO cells; format: cell-based, mouse
Method: For OSW-1 (30310-1, Sanbio/Cayman Chemical), cells were treated overnight with 10 nM. Diluent treatment alone (in most cases DMSO, water for the cyclodextrin) was used as vehicle control. KO cell lines: PSEN1 and 2 KO cell lines (PSENdKO) cell lines were established as described in ([…] al 2020). Briefly, the web-based CRISPR design tool was used to select the sequence to be targeted in mouse PSEN1 and PSEN2 ([NT] and [NT], respectively). Oligo pairs encoding guide sequences (obtained from Integrated DNA Technologies, IDT) were annealed and ligated into the pX330 plasmid (Addgene) according to the Zhang's laboratory protocol (https://www.addgene.org/crispr/zhang/). MEF cells were then transfected with the pX330-PSEN1 and PX330-PSEN2, using Fugene HD (Promega), in accordance with the manufacturer protocol. Selection of PSENdKO clones was achieved through serial dilution and confirmed by WB analysis. Further depletion of APP in different PSENdKO clones was achieved through electroporation of RNP complexes. Single guide RNA (sgRNAs) were designed to either target exon 2 ([NT]) or exon 3 ([NT]). The Neon Transfection System (ThermoFisher Scientific, one pulse, 1650 V, 20 ms) was used to electroporate 150 000 cells with 10 pmol of Cas 9 (IDT) and 20 pmol of single guide RNA (IDT). As above, cells were amplified and selection of independent APPKO clones was performed with serial dilutions and WB characterization. All clones of interest were sequenced using Sanger sequencing. […] Primary antibodies diluted in the same blocking buffer were incubated overnight at 4° C. Following PBS washing steps, (goat- or donkey-) secondary antibodies conjugated with Alexa fluor dyes (Alexa 488, 568, or 647, all ThermoFisher Scientific) diluted in the blocking buffer were incubated for 1 h, RT. Coverslips were then mounted with Mowiol (Sigma). When cholesterol labelling was performed, fixed cells were treated with 200 μg·ml-1 filipin (F4767, Sigma) for 2 h at RT, prior to permeabilization. Acquisition: Z stack images (spacing 2 μm), or a median plan were acquired on a Nikon 1AR connected to an inverse Nikon Ti-2000 equipped with an oil-immersion plan APO 60× objective lenses with 1.40 NA. Data were collected using Nikon Imaging Software. […] Image analysis: All image analysis was done using Image J software (Schindelin et al 2012; Schneider et al 2012). To measure the area of the organelle of interest (early endosomes-EEA1; lysosomes-Lamp1; retromer-VPS35 . . . ), segmentation was realized using automatic thresholding. The following masks were used: Mean (EEA1), Ostu (Lamp1), Intermodes (VPS35). Overlap of signal of interests were quantified with Manders colocalisation index (Plugin Jacob, (Bolte and Cordelieres 2006)). When indicated, co-localization data was normalized to the reference group for multiple comparisons.

Row | SMILES | clearance of cholesterol from LE/Ly [1] | other results
1 | CC1(C)CC(=O)c2c(C(F)(F)F)nn(-c3ccc(C(N)=O)c(N[C@H]4CC[C@H](O)CC4)c3)c2C1 [SNX2112] | clearance of cholesterol from LE/Ly | 
2 | [O-][n+]1cccc(/C(Cl)=N/OC[C@H](O)CN2CCCCC2)c1 [arimoclomol] | same effect | 
3 | Cc1[nH]c2ccccc2c1CCNCc1ccc(/C=C/C(=O)NO)cc1 [LBH589] |  | cholesterol accumulation [2]: efficiently correct cholesterol accumulation
4 | CC(C)c1cc(C(=O)N2Cc3ccc(CN4CCN(C)CC4)cc3C2)c(O)cc1O [AT13387] | clearance of cholesterol from LE/Ly | 
5 | Nc1ccc(C(=O)Nc2cccc(-c3nc(N4CCOCC4)c4oc5ncccc5c4n3)c2)cn1 [YM201636] |  | Lysosomal Ca2+ levels ([3]; WT cells, 2 μM, 2 h, 100 μM GPN): reduced
6 | C=CCNC1=C2C[C@@H](C)C[C@H](OC)[C@H](O)[C@@H](C)/C=C(\C)[C@H](OC(N)=O)[C@@H](OC)/C=C\C=C(/C)C(=O)NC(=CC1=O)C2=O [17-AAG] | clearance of cholesterol from LE/Ly | 
7 | CO/C1=C\C(C)=C\[C@@H](C)[C@@H](O)[C@@H](C)C/C(C)=C/C=C/[C@H](OC)[C@@H]([C@@H](C)[C@@H](O)[C@H](C)[C@@]2(O)C[C@@H](O)[C@H](C)[C@@H](C(C)C)O2)OC1=O [bafilomycin1] |  | lysosomal Ca2+ content ([3]; full alkalinization, compared with PSENdKO cells): equally affected lysosomal Ca2+ content as observed in PSENdKO cells
8 | CC(/C=C/C(=O)NO)=C\[C@@H](C)C(=O)c1ccc(N(C)C)cc1 [trichostatin A] |  | cholesterol accumulation [2]: efficiently correct cholesterol accumulation
9 | CCNC(=O)c1noc(-c2cc(C(C)C)c(O)cc2O)c1-c1ccc(CN2CCOCC2)cc1 [AUY922] | clearance of cholesterol from LE/Ly | 
10 | CC(C)C[C@H](NC(=O)[C@H](Cc1ccccc1)C[C@@H](O)[C@H](Cc1ccccc1)NC(=O)OC(C)(C)C)C(=O)N[C@@H](Cc1ccccc1)C(N)=O [InhibitorX] |  | lysosomal Ca2+ content ([3]; WT cells, 1 μM, 4 days, normalized to DMSO): reduced
11 | CCc1cc(C(N)=O)ccc1-n1nc(C(C)C)c2c(-n3cnc(-c4cnn(C)c4)c3)ccnc21 [TAS-116] | clearance of cholesterol from LE/Ly | 
12 | Cc1ccc(NC(=O)c2ccc(CN3CCN(C)CC3)cc2)cc1Nc1nccc(-c2cccnc2)n1 [Imatinib] |  | APP-CTFs in VPS35-positive organelles [4]: significant decrease of APP-CTFs in VPS35-positive organelles; VPS35-LAMP1 co-localization ([4]; vs DMSO): lowered VPS35-LAMP1 co-localization
13 | CC(C)c1cc(-c2n[nH]c(=O)n2-c2ccc3c(ccn3C)c2)c(O)cc1O [Ganetespib] | clearance of cholesterol from LE/Ly | 
